The compounds below were run on MV-4-11 cells (assay: Cell Viability Assay in MV-4-11 Cells). Conditions: Homo sapiens, MV4-11, 72 h.
Format: cell-based
Procedure, shortened: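 MV-4-11 cells at 7,000/well in IMDM with 10% FBS, exposed to compound for 72 h. Viability by CellTiter-Glo luminescence, normalized to DMSO as 100%, fitted with a four-parameter curve.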

| Structure (SMILES) | IC50 |
| --- | --- |
| Cc1cccc2ccnc(N(C(=O)c3ccc(C#CC(C)(C)O)cc3F)[C@@H]3CCCNC3)c12 [Example 592, (R)-2-fluoro-4-(3-hydroxy-3-methylbut-1-yn-1-yl)-N-(8-methylisoquinolin-1-yl)-N-(piperidin-3-yl)benzamide] | 360 nM |

Same assay, conditions: Homo sapiens, MV4-11, 72 h, MV-4-11 cells, 72 h, Cell-Titer Glo; read-out: IC50

| IC50 | Structure (SMILES) |
| --- | --- |
| 180 nM | C=Cc1csc2ccnc(N(C(=O)c3ccc(-c4nnc(C)s4)cc3F)[C@@H]3CCCNC3)c12 [Example 886, 2-fluoro-4-(5-methyl-1,3,4-thiadiazol-2-yl)-N-[(3R)-3-piperidyl]-N-(3-vinylthieno[3,2-c]pyridin-4-yl)benzamide] |
| 130 nM | Cc1cccc2ccnc(N(C(=O)c3ccc(Nc4ncc5ccsc5n4)cc3F)[C@@H]3CCCNC3)c12 [Example 823, (R)-2-fluoro-N-(8-methylisoquinolin-1-yl)-N-(piperidin-3-yl)-4-(thieno[2,3-d]pyrimidin-2-ylamino)benzamide] |
| 100 nM | Cc1cccc2ccnc(N(C(=O)c3ccc(Nc4nccnn4)cc3F)[C@@H]3CCCNC3)c12 [Example 953, (R)-4-(1,2,4-triazin-3-ylamino)-2-fluoro-N-(8-methylisoquinolin-1-yl)-N-(piperidin-3-yl)benzamide] |
| 920 nM | Cn1cc(-c2ccc(C(=O)N(c3nccc4sc(-c5ccc6c(c5)CNC6=O)cc34)[C@@H]3CCCNC3)c(F)c2)nn1 [Example 538, 2-fluoro-4-(1-methyltriazol-4-yl)-N-[2-(1-oxoisoindolin-5-yl)thieno[3,2-c]pyridin-4-yl]-N-[(3R)-3-piperidyl]benzamide] |
| 450 nM | Cn1ccc2ccnc(N(C(=O)c3ccc(-c4cnn5cccnc45)cc3)[C@@H]3CCCNC3)c21 [Example 303, (R)—N-(1-methyl-1H-pyrrolo[2,3-c]pyridin-7-yl)-N-(piperidin-3-yl)-4-(pyrazolo[1,5-a]pyrimidin-3-yl)benzamide] |
| 150 nM | Cc1nc(-c2ccc3c(N(C(=O)c4ccc(-n5nnc6cccnc65)cc4F)[C@@H]4CCCNC4)nccc3c2)cs1 [Example 575, (R)-4-(3H-[1,2,3]triazolo[4,5-b]pyridin-3-yl)-2-fluoro-N-(6-(2-methylthiazol-4-yl)isoquinolin-1-yl)-N-(piperidin-3-yl)benzamide] |
| 1400 nM | Cc1csc2c(N(C(=O)c3ccc(-c4cn(C)nn4)cc3F)[C@@H]3CCCNC3)nccc12 [Example 677, (R)-2-fluoro-4-(1-methyl-1H-1,2,3-triazol-4-yl)-N-(3-methylthieno[2,3-c]pyridin-7-yl)-N-(piperidin-3-yl)benzamide] |
| 620 nM | COc1ccc2c(N(C(=O)c3ccc(-c4nnc(C)s4)cc3F)[C@@H]3CCCNC3)nccc2c1 [Example 762, (R)-2-fluoro-N-(6-methoxyisoquinolin-1-yl)-4-(5-methyl-1,3,4-thiadiazol-2-yl)-N-(piperidin-3-yl)benzamide] |
| 14 nM | Cc1cccc2ccnc(N(C(=O)c3ccc(Nc4nccc(N5CCC(=O)CC5)n4)cc3F)[C@@H]3CCCNC3)c12 [Example 719, (R)-2-fluoro-N-(8-methylisoquinolin-1-yl)-4-((4-(4-oxopiperidin-1-yl)pyrimidin-2-yl)amino)-N-(piperidin-3-yl)benzamide] |
| > 10000 nM | O=C(O)CCc1ccc2c(N(C(=O)c3ccc(-n4nnc5cccnc54)cc3F)[C@@H]3CCCNC3)nccc2c1 [Example 407] |
| 54 nM | Cc1cccc2ccnc(N(C(=O)c3ccc(Nc4ncc(F)cn4)cc3F)[C@@H]3CCCNC3)c12 [Example 409, (R)-2-fluoro-4-((5-fluoropyrimidin-2-yl)amino)-N-(8-methylisoquinolin-1-yl)-N-(piperidin-3-yl)benzamide] |
| 980 nM | Cn1cc(-c2ccc(C(=O)N(c3nccc4sc(-c5cnn(Cc6cccnc6)c5)cc34)[C@@H]3CCCNC3)c(F)c2)nn1 [Example 485, 2-fluoro-4-(1-methyltriazol-4-yl)-N-[(3R)-3-piperidyl]-N-[2-[1-(3-pyridylmethyl)pyrazol-4-yl]thieno [3,2-c]pyridin-4-yl] benzamide] |
| 240 nM | COc1ccc2c(N(C(=O)c3ccc(-c4cn(C)nn4)cc3F)[C@@H]3CCCNC3)nccc2c1 [Example 471, (R)-2-fluoro-N-(6-methoxyisoquinolin-1-yl)-4-(1-methyl-1H-1,2,3-triazol-4-yl)-N-(piperidin-3-yl)benzamide] |
| 190 nM | C#Cc1csc2c(N(C(=O)c3ccc(-c4cn(C)nn4)cc3F)[C@@H]3CCCNC3)nccc12 [Example 676, N-(3-ethynylthieno[2,3-c]704yridine-7-yl)-2-fluoro-4-(1-methyltriazol-4-yl)-N-[(3R)-3-piperidyl]benzamide] |
| 460 nM | CC(C)(O)c1cccc(-c2cc3c(N(C(=O)c4ccc(-n5nnc6cccnc65)cc4F)[C@@H]4CCCNC4)nccc3s2)c1 [Example 602, (R)-4-(3H-[1,2,3]triazolo[4,5-b]pyridin-3-yl)-2-fluoro-N-(2-(3-(2-hydroxypropan-2-yl)phenyl)thieno[3,2-c]pyridin-4-yl)-N-(piperidin-3-yl)benzamide] |
| 130 nM | Cc1cccc2ccnc(N(C(=O)c3ccc(Nc4ncc5ccccc5n4)cc3F)[C@@H]3CCCNC3)c12 [Example 824, (R)-2-fluoro-N-(8-methylisoquinolin-1-yl)-N-(piperidin-3-yl)-4-(quinazolin-2-ylamino)benzamide] |
| 790 nM | Cc1nnc(-c2ccc(C(=O)N(c3nccc4c(C)ccc(C)c34)[C@@H]3CCCNC3)nc2)s1 [Example 877, N-(5,8-dimethyl-1-isoquinolyl)-5-(5-methyl-1,3,4-thiadiazol-2-yl)-N-[(3R)-3-piperidyl]pyridine-2-carboxamide] |
| 25 nM | COc1cc(-n2nnc3cccnc32)ccc1C(=O)N(c1nccc2cccc(C)c12)[C@@H]1CCCNC1 [Example 308, (R)-4-(3H-[1,2,3]triazolo[4,5-b]pyridin-3-yl)-2-methoxy-N-(8-methylisoquinolin-1-yl)-N-(piperidin-3-yl)benzamide] |
| 230 nM | Cc1cccc2ccnc(N(C(=O)c3ccc(Nc4nccc(N5CCC(N6CCCC6)CC5)n4)cc3F)[C@@H]3CCCNC3)c12 [Example 715, (R)-2-fluoro-N-(8-methylisoquinolin-1-yl)-N-(piperidin-3-yl)-4-((4-(4-(pyrrolidin-1-yl)piperidin-1-yl)pyrimidin-2-yl)amino)benzamide] |
| 610 nM | Cn1cc(-c2ccc(C(=O)N(c3nccc4sc(-c5ccccn5)cc34)[C@@H]3CCCNC3)c(F)c2)nn1 [Example 507, 2-fluoro-4-(1-methyltriazol-4-yl)-N-[(3R)-3-piperidyl]-N-[2-(2-pyridyl)thieno [3,2-c]pyridin-4-yl] benzamide] |
| 300 nM | Cc1cccc2ccnc(N(C(=O)N3CCCC(N4C(=O)c5ccccc5C4=O)C3)[C@@H]3CCCNC3)c12 (stereo partly drawn) [Example 345, 3-(1,3-dioxoisoindolin-2-yl)-N-(8-methylisoquinolin-1-yl)-N—((R)-piperidin-3-yl)piperidine-1-carboxamide] |
| 35 nM | Cc1cccc2ccnc(N(C(=O)c3ccc(Nc4nccc(N5CCC(=O)C5)n4)cc3F)[C@@H]3CCCNC3)c12 [Example 947, (R)-2-fluoro-N-(8-methylisoquinolin-1-yl)-4-((4-(3-oxopyrrolidin-1-yl)pyrimidin-2-yl)amino)-N-(piperidin-3-yl)benzamide] |
| 75 nM | COCCCc1nnc(-c2ccc(C(=O)N(c3nccc4cc(C)cc(C)c34)[C@@H]3CCCNC3)cn2)s1 [Example 904, N-(6,8-dimethyl-1-isoquinolyl)-6-[5-(3-methoxypropyl)-1,3,4-thiadiazol-2-yl]-N-[(3R)-3-piperidyl]pyridine-3-carboxamide] |
| 67 nM | CCn1cc(-c2ccc(C(=O)N(c3nccc4cccc(C)c34)[C@@H]3CCCNC3)c(F)c2)nn1 [Example 821, (R)-4-(1-ethyl-1H-1,2,3-triazol-4-yl)-2-fluoro-N-(8-methylisoquinolin-1-yl)-N-(piperidin-3-yl)benzamide] |
| 30 nM | Cc1cccc2ccnc(N(C(=O)c3ccc(Nc4nccc(N5CCC(O)CC5)n4)cc3F)[C@@H]3CCCNC3)c12 [Example 717, (R)-2-fluoro-4-((4-(4-hydroxypiperidin-1-yl)pyrimidin-2-yl)amino)-N-(8-methylisoquinolin-1-yl)-N-(piperidin-3-yl)benzamide] |
| 110 nM | COC(=O)c1cnc(Nc2ccc(C(=O)N(c3nccc4cccc(C)c34)[C@@H]3CCCNC3)c(F)c2)nc1 [Example 929, methyl (R)-2-((3-fluoro-4-((8-methylisoquinolin-1-yl)(piperidin-3-yl)carbamoyl)phenyl)amino)pyrimidine-5-carboxylate] |
| 310 nM | CC(C)(O)C#Cc1ccc2c(N(C(=O)c3ccc(-n4nnc5cccnc54)cc3F)[C@@H]3CCCNC3)nccc2c1 [Example 586, (R)-4-(3H-[1,2,3]triazolo[4,5-b]pyridin-3-yl)-2-fluoro-N-(6-(3-hydroxy-3-methylbut-1-yn-1-yl)isoquinolin-1-yl)-N-(piperidin-3-yl)benzamide] |
| 620 nM | Cn1cc(-c2ccc(C(=O)N(c3nccc4sc(Cc5ccccc5)cc34)[C@@H]3CCCNC3)c(F)c2)nn1 [Example 487, N-(2-benzylthieno[3,2-c]pyridin-4-yl)-2-fluoro-4-(1-methyltriazol-4-yl)-N-[(3R)-3-piperidyl]benzamide] |
| 170 nM | Cc1csc2ccnc(N(C(=O)c3ccc(-c4cn(C)nn4)cc3Cl)[C@@H]3CCCNC3)c12 [Example 758, (R)-2-chloro-4-(1-methyl-1H-1,2,3-triazol-4-yl)-N-(3-methylthieno[3,2-c]pyridin-4-yl)-N-(piperidin-3-yl)benzamide] |
| > 10000 nM | Cc1cccc2ccnc(N(C(=O)c3ccc(-c4cn(C)nc4N)cc3F)[C@@H]3CCCNC3)c12 [Example 391, 4-(3-amino-1-methyl-pyrazol-4-yl)-2-fluoro-N-(8-methyl-1-isoquinolyl)-N-[(3R)-3-piperidyl] benzamide] |

Same assay, conditions: MV-4-11 cells, 72 h, Cell-Titer Glo; read-out: IC50

| IC50 | Structure (SMILES) |
| --- | --- |
| 76 nM | Cn1cc(-c2ccc(C(=O)N(c3nccc4cc(-c5ccccc5)ccc34)[C@@H]3CCCNC3)c(F)c2)nn1 [Example 577, (R)-2-fluoro-4-(1-methyl-1H-1,2,3-triazol-4-yl)-N-(6-phenylisoquinolin-1-yl)-N-(piperidin-3-yl)benzamide] |

From US20240400555A1 (Initial Therapeutics, Inc., priority 2023, published 2024)
